{"source": "patent US11124845B2", "about": "“PSMA-based molecular-genetic reporter system” (THE JOHNS HOPKINS UNIVERSITY, priority 2014, dated 2021)", "key": {"HSV-sr39tk": {"test_system": "HSV-sr39tk", "test": "Dynamic PET in matrigel suspension model, HSV-sr39tk reporter", "assay_type": "in vivo, herpes simplex virus", "conditions": "nude mice", "experimental": "(§1) Studies were performed according to protocols approved by the Animal Care and Use Committee at Johns Hopkins University. A matrigel suspension model was developed to enable imaging of similar numbers of cells in vivo. Four- to six-week-old athymic male nude mice (Harlan Laboratories Inc., Frederick, Md.) were used for all experiments. 4×10^6 infected cells were injected subcutaneously in the presence of Matrigel (BD Biosciences, Bedford, Mass.) at a 2:1 (cell:matrigel) ratio.\n(§2) PET was performed for in vivo reporter comparison. […] [^124I]NaI was kindly provided by Dr. Jason Lewis (Memorial Sloan-Kettering Cancer Center, NY). Athymic nude mice contralaterally implanted with reporter or control expressing matrigel suspensions in the upper flanks were used for imaging. […] Mice were then placed in the prone position on the gantry of a GE eXplore VISTA small animal PET scanner (GE Healthcare Life Sciences, Pittsburgh, Pa.) and injected intravenously with ˜7.4 MBq (200 μCi) in 200 μL of PBS of each respective radiotracer. Images were acquired as a dynamic scan of 18 five-minute frames at 250 to 700 keV for ^18F and 400-700 keV for ^124I. Images were reconstructed using the FORE/2D-OSEM method (1 iteration, 16 subsets) and included correction for radioactive decay, scanner dead time, and scattered radiation. After PET imaging, the mobile mouse holder was placed on the gantry of an X-SPECT (Gamma Medica-Ideas, Salem, N.H.) small animal imaging device to acquire the corresponding CT. PET and CT data were co-registered using AMIDE software (sourceforge.net).\n(§3) To compare reporter-probe systems in vivo, a matrigel suspension model was developed (FIG. 2). […] The contralateral cells masses were generally within 30% as measured by GFP imaging in vivo (FIG. 3).\n(§4) The next day (48 hours after implantation), animals were subjected to a dynamic PET study whereby ˜7.4 MBq (200 μCi) of each respective radiotracer was administered intravenously and cellular uptake was quantified for a duration of 90 minutes. […]"}, "hNIS": {"target": "T1, hNIS (Homo sapiens, UniProt Q92911)", "T1 construct": "expressed in transfected cells; host or cells: PC3-CAR cells infected in vitro with Ad-Track-hNIS (pAd-Track-CMV-NIS), implanted in matrigel into nude mice", "T1 sequence (Q92911 1-643)": "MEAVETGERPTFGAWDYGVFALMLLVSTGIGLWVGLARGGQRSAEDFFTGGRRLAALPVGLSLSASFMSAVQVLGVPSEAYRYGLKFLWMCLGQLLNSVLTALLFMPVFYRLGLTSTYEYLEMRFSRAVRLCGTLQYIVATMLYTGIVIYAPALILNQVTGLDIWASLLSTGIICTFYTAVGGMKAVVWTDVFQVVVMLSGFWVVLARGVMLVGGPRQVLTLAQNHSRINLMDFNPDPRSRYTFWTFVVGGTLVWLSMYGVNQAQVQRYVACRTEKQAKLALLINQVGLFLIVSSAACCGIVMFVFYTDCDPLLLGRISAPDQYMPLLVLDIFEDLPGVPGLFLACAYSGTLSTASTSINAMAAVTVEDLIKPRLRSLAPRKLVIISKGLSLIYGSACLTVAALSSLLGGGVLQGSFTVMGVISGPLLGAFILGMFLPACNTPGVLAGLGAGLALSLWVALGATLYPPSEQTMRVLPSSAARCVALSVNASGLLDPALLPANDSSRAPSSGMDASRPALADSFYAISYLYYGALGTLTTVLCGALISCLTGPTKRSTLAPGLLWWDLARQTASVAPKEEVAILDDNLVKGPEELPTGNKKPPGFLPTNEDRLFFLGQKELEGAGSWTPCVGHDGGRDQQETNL", "test": "Dynamic PET in matrigel suspension model, hNIS reporter", "assay_type": "in vivo", "conditions": "nude mice", "experimental": "as §1, §2, §3, §4"}, "[1]": {"test_system": "MDA-MB-231 cell lines transiently transfected with full-length and truncations of PSMA", "test": "In vitro radio uptake assay, cells transfected with non-viral PSMA vectors", "assay_type": "cell-based", "conditions": "24 hours after transfection, 1 μCi", "experimental": "The basic expression vectors (FIG. 8A) were tested for the ability to uptake a radio-labeled PSMA-targeted molecule (^125I-YC27). […] Twenty-four hours after the transfection, cells were treated with 1 μCi of ^125I-YC27, washed twice and the uptake was measured."}, "[2]": {"conditions": "PC3-CAR cells in matrigel, PET, SUV ratio"}}}
{"smiles": "Nc1nc2c(ncn2CCC(CO)C[18F])c(=O)[nH]1", "note": "(stereo not shown) [FHBG, 9-(4-[^18F]Fluoro-3-[hydroxymethyl]butyl)guanine]", "values": [{"measurement": "peak target-to-background ratio relative to control cells", "setting": "HSV-sr39tk; [2]", "value": "2.81±0.27"}, {"measurement": "peak target-to-background ratio relative to muscle", "setting": "HSV-sr39tk; [2]", "value": "4.99±0.38"}, {"measurement": "time after which signal-to-noise ratio greater than two (relative to muscle) could be detected", "setting": "HSV-sr39tk; dynamic PET", "value": 45, "unit": "min"}]}
{"smiles": "[124I-].[Na+]", "note": "[[^124I]NaI]", "values": [{"measurement": "peak target-to-background ratio relative to control cells", "setting": "hNIS; [2]", "value": "3.13±0.20"}, {"measurement": "peak target-to-background ratio relative to muscle", "setting": "hNIS; [2]", "value": "4.96±0.65"}, {"measurement": "time after which signal-to-noise ratio greater than two (relative to muscle) could be detected", "setting": "hNIS; dynamic PET", "value": 20, "unit": "min"}]}
{"smiles": "O=C(O)CCC(NC(=O)NC(CCCCNC(=O)c1ccc([125I])cc1)C(=O)O)C(=O)O", "note": "(stereo not shown) [^125I-YC27, 2-[3-[1-carboxy-5-(4-[^125I]iodo-benzoylamino)-pentyl]-ureido]-pentanedioic acid]", "values": [{"measurement": "specific uptake of the substrate", "setting": "[1]", "value": "Only full-length and N-terminally truncated PSMA were able to specifically uptake the substrate"}]}
